These results are taken from US20060228706A1, “Methods of diagnosing and treating diabetes and insulin resistance” (Metabolex, Inc., priority 2002, published 2006).

Several values for one entry are separate records, joined by “and”; a condition that tells them apart may be missing. Identical values can stand only once.

Experiment [1] has as its target T1, hP2RY1 (Homo sapiens, UniProt P47900).
T1 construct: expressed in transfected cells; host or cells: differentiated murine 3T3-L1 adipocytes (A2) or differentiated L6 myotubes (A4), infected with recombinant adenovirus
Description: Glucose transport analysis in 3T3-L1 adipocytes over-expressing hP2RY1 (adenovirus). The format is cell-based. On the procedure:
(§1) In some instances another analysis called “glucose transport” was used. This involves over-expressing the gene in either differentiated 3T3-L1 adipocytes or differentiated L6 myotubes and then monitoring the ability of insulin to stimulate glucose transport into these two cell types. A recombinant adenovirus encoding the human gene tagged with a FLAG epitope tag was prepared essentially as described in Zhou et al., Proc. Nat. Acad. Sci. USA. 95:2509-2514 (1998). 3T3-L1 adipocytes or L6 myotubes were infected with recombinant adenovirus expressing the human gene. A virus expressing an irrelevant protein was used as the control. Twenty four hours post infection the cells are stimulated with increasing concentrations of insulin and glucose transport into the cells determined by the counting the accumulation of a radiolabelled glucose analog (2-deoxyglucose) essentially as described in Kotani et al., Mol. Cell. Biol. 18:6971-6982 (1998), Fujishiro et al., J. Biol. Chem. 276:19800-19806 (2001), Ross et al., Biochem. Biophys. Res. Commun. 302:354-358 (2003)

The subject of the next experiment is L6 myotubes. As to the kind of experiment: Glucose transport analysis in L6 myotubes (2-deoxyglucose uptake), cells not expressing hP2RY1. The format is cell-based. Particulars: basal glucose transport (no insulin), 2-MeSADP 1 μM for 6 hours. The method, then: as §1
For a further experiment, the system named is 3T3-L1 adipocytes. As to the kind of experiment: Glucose transport analysis in 3T3-L1 adipocytes (2-deoxyglucose uptake), cells not expressing hP2RY1. The format is cell-based, murine. The note with it: basal glucose transport (no insulin), 2-MeSADP 1 μM for 6 hours, mean of 5 experiments. The method, then: as §1
Experiment [2] has as its target T1, hP2RY1. Description: Glucose transport analysis in L6 myotubes over-expressing hP2RY1 (adenovirus). The format is cell-based. On the procedure:
as §1

T1 sequence (P47900 whole entry): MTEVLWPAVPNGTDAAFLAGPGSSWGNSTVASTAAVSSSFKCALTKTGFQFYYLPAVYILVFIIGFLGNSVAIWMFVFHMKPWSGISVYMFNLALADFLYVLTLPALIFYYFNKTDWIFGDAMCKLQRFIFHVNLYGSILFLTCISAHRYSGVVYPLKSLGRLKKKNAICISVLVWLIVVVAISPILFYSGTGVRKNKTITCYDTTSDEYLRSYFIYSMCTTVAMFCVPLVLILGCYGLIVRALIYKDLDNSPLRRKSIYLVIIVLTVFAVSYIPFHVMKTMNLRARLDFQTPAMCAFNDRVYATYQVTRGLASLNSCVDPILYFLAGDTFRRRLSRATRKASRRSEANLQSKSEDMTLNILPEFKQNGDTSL

For the compound `CSc1nc(N)c2ncn([C@@H]3O[C@H](COP(=O)(O)OP(=O)(O)O)[C@@H](O)[C@H]3O)c2n1` [2-MeSADP], the “basal glucose transport, result in words” value on hP2RY1 [1] (3T3-L1 adipocytes with or without hP2RY1) and on hP2RY1 [2] (L6 myotubes with or without hP2RY1) was “can be stimulated by a P2RY1 agonist but only when the hP2RY1 is expressed in the cells” throughout. Besides, at hP2RY1 [1] (basal glucose transport (no insulin), hP2RY1-expressing 3T3-L1 adipocytes, 2-MeSADP 1 μM for 6 hours, mean of 5 experiments), the “Fold Change 2 (Basal plus P2RY1 plus 2-MeSADP)/(Basal no P2RY1 no 2-MeSADP), Mean +/− SEM (n = 5)” value is listed as 2.11 +/− 0.34. In the experiment on L6 myotubes (mean of 2 experiments), the “Fold Change 1 (Basal plus 2-MeSADP)/(Basal no 2-MeSADP), Mean (n = 2)” value was determined as 0.97. For the same compound, in the experiment on L6 myotubes (single experiments), the “Fold Change 1 (Basal plus 2-MeSADP)/(Basal no 2-MeSADP)” value was 0.99 and 0.95. In the experiment with 3T3-L1 adipocytes, the “Fold Change 1 (Basal plus 2-MeSADP)/(Basal no 2-MeSADP), Mean +/− SEM (n = 5)” value is reported as 1.07 +/− 0.13. Besides, the “Fold Change 2 (Basal plus P2RY1 plus 2-MeSADP)/(Basal no P2RY1 no 2-MeSADP), Mean (n = 2)” value at hP2RY1 [2] (basal glucose transport (no insulin), hP2RY1-expressing L6 myotubes, 2-MeSADP 1 μM for 6 hours, mean of 2 experiments) stood at 1.81. Further, the “Fold Change 2 (Basal plus P2RY1 plus 2-MeSADP)/(Basal no P2RY1 no 2-MeSADP)” value at hP2RY1 [2] (basal glucose transport (no insulin), hP2RY1-expressing L6 myotubes, 2-MeSADP 1 μM for 6 hours, single experiments) is 1.71 and 1.91.
